What all share (assay type): functional
In test [1] the test system is Escherichia coli. Nature of the test: Antibacterial activity against Escherichia coli assessed as bacterial growth inhibition incubated for 24 hrs by broth microdilution method.
The subject of test [2] is Staphylococcus aureus. The experiment in a line: Antibacterial activity against Staphylococcus aureus ATCC 25923 assessed as bacterial growth inhibition incubated for 24 hrs by broth microdilution method.
A further test concerns Klebsiella pneumoniae. Nature of the test: Antibacterial activity against Klebsiella pneumoniae assessed as bacterial growth inhibition incubated for 24 hrs by broth microdilution method.
In test [3] the test system is Pseudomonas aeruginosa. The experiment in a line: Antibacterial activity against Pseudomonas aeruginosa assessed as bacterial growth inhibition incubated for 24 hrs by broth microdilution method.
Test [4] relates to Staphylococcus aureus. The experiment in a line: Antibacterial activity against Staphylococcus aureus ATCC 29213 assessed as bacterial growth inhibition incubated for 24 hrs by broth microdilution method.
The subject of test [5] is Staphylococcus aureus. Nature of the test: Antibacterial activity against methicillin-resistant Staphylococcus aureus assessed as bacterial growth inhibition incubated for 24 hrs by broth microdilution method.
The test system of a further test is Enterococcus faecalis. Nature of the test: Antibacterial activity against Enterococcus faecalis assessed as bacterial growth inhibition incubated for 24 hrs by broth microdilution method.
In test [6] the test system is Acinetobacter baumannii. Nature of the test: Antibacterial activity against Acinetobacter baumannii assessed as bacterial growth inhibition incubated for 24 hrs by broth microdilution method.
In test [7] the test system is Escherichia coli. Nature of the test: Antibacterial activity against Escherichia coli ATCC 25922 assessed as bacterial growth inhibition incubated for 24 hrs by broth microdilution method.
Test [8] concerns Pseudomonas aeruginosa. Nature of the test: Antibacterial activity against Pseudomonas aeruginosa ATCC 27853 assessed as bacterial growth inhibition incubated for 24 hrs by broth microdilution method.
Test [9] concerns Acinetobacter baumannii. The experiment in a line: Induction of drug resistance against Acinetobacter baumannii assessed as fold increase in MIC after 20 passages measured for 20 days by sequential passaging method. The settings on record: time 20.0 day.
Test [10] concerns Staphylococcus aureus. The experiment in a line: Antibacterial activity against Staphylococcus aureus assessed as bacterial growth inhibition incubated for 24 hrs by broth microdilution method.

Values after ≈ are worked out from the molar mass of the structure shown.

In ChEMBL document CHEMBL5380831, “Azolylpyrimidinediols as Novel Structural Scaffolds of DNA-Groove Binders against Intractable Acinetobacter baumannii” (J Med Chem, 2023) one finds MIC and fold change (FC) data, which are given here for 2 compounds.

Turning to `CCn1cc(C(=O)O)c(=O)c2cc(F)c(N3CCNCC3)cc21` [NORFLOXACIN], the MIC was 25 µM (≈ 7.98 µg/mL) in the test with Escherichia coli [1]; 2 µM (≈ 0.639 µg/mL) with Staphylococcus aureus [2]; 6 µM (≈ 1.92 µg/mL) in the test with Klebsiella pneumoniae; 1 µM (≈ 0.319 µg/mL) in the test on Pseudomonas aeruginosa [3]; 6 µM (≈ 1.92 µg/mL) in the test on Staphylococcus aureus [4]; 50 µM (≈ 16 µg/mL) in the test on Staphylococcus aureus [5]. The MIC was found to be 100 µM (≈ 31.9 µg/mL) in the test with Enterococcus faecalis; 6 µM (≈ 1.92 µg/mL) in the test on Acinetobacter baumannii [6]; 3 µM (≈ 0.958 µg/mL) in the test with Escherichia coli [7]; 3 µM (≈ 0.958 µg/mL) in the test on Pseudomonas aeruginosa [8]; 3 µM (≈ 0.958 µg/mL) with Staphylococcus aureus [10]. Moreover, the fold change (FC) with Acinetobacter baumannii [9] was 31.
Consider `OCCN(CCO)c1ccnc(-n2ccnc2)n1`, for which the MIC was 1030 µM (≈ 256 µg/mL) in the test with Escherichia coli [1]; 1030 µM (≈ 256 µg/mL) in the test with Staphylococcus aureus [2]; 1030 µM (≈ 256 µg/mL) in the test on Klebsiella pneumoniae; 514 µM (≈ 128 µg/mL) with Pseudomonas aeruginosa [3]; 2060 µM (≈ 512 µg/mL) with Staphylococcus aureus [4]; 1030 µM (≈ 256 µg/mL) with Staphylococcus aureus [5]. For the same compound, the MIC in the test with Enterococcus faecalis is 1030 µM (≈ 256 µg/mL); with Acinetobacter baumannii [6], 1030 µM (≈ 256 µg/mL); with Escherichia coli [7] it was 2060 µM (≈ 512 µg/mL); in the test on Pseudomonas aeruginosa [8], 1030 µM (≈ 256 µg/mL); in the test with Staphylococcus aureus [10] it was 1030 µM (≈ 256 µg/mL).
